Reference: ChEMBL document CHEMBL1201862, “PubChem BioAssay data set” (2004)
Activity calls are given as the source filed them.

Experiments:
[1] = HepG2 cell cytotoxicity, dose response, cytotoxicity control for non-replicating M. tuberculosis project (AID 489018); assay type: functional; conditions: Mycobacterium tuberculosis
[2] = Vero E6 cell cytotoxicity, dose response, cytotoxicity control for non-replicating M. tuberculosis project, secondary assay (AID 492998); assay type: functional, VeroE6; conditions: Vero C1008
[3] = microbe, parasite or virus in culture; assay type: functional; conditions: Mycobacterium tuberculosis
[4] = cytotoxicity toward NIH3T3 fibroblasts, dose response, counter-screen, cell-based, ATP luminescence, mouse fibroblasts (AID 2010); assay type: functional;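 also: cells exposed to compound for about 90 hours before reading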
[5] = THP-1 cell cytotoxicity, dose response, cytotoxicity control for non-replicating M. tuberculosis project (AID 489025); assay type: functional
[6] = inhibitors of intracellular T. cruzi replication, confirmation, NIH3T3 host cells, beta-gal luminescence (AID 2044); assay type: functional, cell-based;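 also: intracellular parasites grown in NIH/3T3 mouse fibroblasts as host cells; luminescent beta-galactosidase reporter signal from transgenic T. cruzi replicating inside host cells; inhibitors lower the luminescence signal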
[7] = molecular target: Dual specificity protein phosphatase 3 (Homo sapiens, UniProt P51452); assay: SAR VHR1 Fluorescent Assay for In Vitro dose response studies Set 3. [Related pubchem assays (depositor defined):AID1654, AID1661, AID1878]; assay type: functional
Sequence of Dual specificity protein phosphatase 3 (P51452 whole entry): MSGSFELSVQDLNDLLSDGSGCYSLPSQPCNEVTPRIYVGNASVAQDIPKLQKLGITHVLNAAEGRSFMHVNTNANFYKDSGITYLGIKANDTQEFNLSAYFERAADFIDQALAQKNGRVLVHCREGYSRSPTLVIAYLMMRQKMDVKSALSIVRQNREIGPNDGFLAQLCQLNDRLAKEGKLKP

[8] = A549 cell cytotoxicity, dose response, cytotoxicity control, plate reader, cherry-pick, antagonist series (AID 743412); assay type: functional, cell-based
[9] = molecular target: T1, Microphthalmia-associated transcription factor (Homo sapiens, UniProt O75030); assay: TRPM1 promoter luciferase signal decrease, dose response, MITF inhibitor project, cell-based, SK-MEL-5, cherry-picked, set 3 (AID 493073); assay type: functional
T1 sequence (O75030 whole entry): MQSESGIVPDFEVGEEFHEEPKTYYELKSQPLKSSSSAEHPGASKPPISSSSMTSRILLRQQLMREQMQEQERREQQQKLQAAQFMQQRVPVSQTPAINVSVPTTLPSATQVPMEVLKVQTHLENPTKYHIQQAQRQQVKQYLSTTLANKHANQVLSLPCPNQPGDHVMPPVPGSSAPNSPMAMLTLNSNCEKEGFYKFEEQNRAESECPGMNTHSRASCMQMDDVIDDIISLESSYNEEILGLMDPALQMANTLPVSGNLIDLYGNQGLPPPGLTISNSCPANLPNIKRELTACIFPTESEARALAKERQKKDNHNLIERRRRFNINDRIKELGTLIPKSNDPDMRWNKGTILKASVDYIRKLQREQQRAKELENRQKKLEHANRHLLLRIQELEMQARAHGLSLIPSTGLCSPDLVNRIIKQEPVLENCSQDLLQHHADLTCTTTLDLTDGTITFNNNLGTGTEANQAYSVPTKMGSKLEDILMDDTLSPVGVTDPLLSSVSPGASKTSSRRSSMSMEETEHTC

[10] = HEK293 cell cytotoxicity, dose response, cytotoxicity control, plate reader, cherry-picked samples (AID 743446); assay type: functional, cell-based
[11] = MC4R antagonists, dose response, counter-screen for LGR2 antagonist project, cell-based, plate reader, cherry pick (AID 743444); assay type: functional;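 also: transfected HEK 293 cells stimulated with alpha-MSH peptide; potency of inhibitors of the alpha-MSH evoked signal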
A-375 = assay: MITF: Counter assay: A375 proliferation Measured in Cell-Based System Using Plate Reader - 2084-03_Inhibitor_Dose_DryPowder_Activity. [Related pubchem assays (depositor defined):AID488944]; assay type: functional; conditions: Homo sapiens
[12] = HepG2 cell cytotoxicity, dose response, cytotoxicity control, plate reader, cherry-pick, antagonist series (AID 743416); assay type: functional, cell-based
[13] = LGR2 antagonists, dose response, cell-based, HEK293, CRE-luciferase reporter, cherry pick, set 2 (AID 743343); assay type: functional;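 also: transfected cells were stimulated with diluted bursicon conditioned medium after compound addition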
Streptococcus = assay: Group A Streptococcus viability loss, dose response, counter-screen for streptokinase expression inhibitor project, luminescence, BacTiterGlo (AID 1915); assay type: functional, organism-based;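 also: potency for reduction of bacterial viability or growth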
[14] = tested on: Streptococcus sp. 'group A'; assay: growth inhibition of control SK(-) GAS strain, dose response, counter-screen for streptokinase expression inhibitor project, luminescence, kanamycin, BacTiterGlo, confirmation (AID 1900); assay type: functional, organism-based
Streptokinase A = molecular target: T2, Streptokinase A (Streptococcus pyogenes serotype M1, UniProt P10520); assay: S. pyogenes streptokinase expression inhibitors, potency, dose response, plasminogen activation absorbance, OD405 (AID 1914); assay type: functional, Streptococcus pyogenes M1 GAS;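 also: secreted streptokinase activity via plasminogen activation per viability signal from cell pellet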
T2 sequence (P10520 whole entry): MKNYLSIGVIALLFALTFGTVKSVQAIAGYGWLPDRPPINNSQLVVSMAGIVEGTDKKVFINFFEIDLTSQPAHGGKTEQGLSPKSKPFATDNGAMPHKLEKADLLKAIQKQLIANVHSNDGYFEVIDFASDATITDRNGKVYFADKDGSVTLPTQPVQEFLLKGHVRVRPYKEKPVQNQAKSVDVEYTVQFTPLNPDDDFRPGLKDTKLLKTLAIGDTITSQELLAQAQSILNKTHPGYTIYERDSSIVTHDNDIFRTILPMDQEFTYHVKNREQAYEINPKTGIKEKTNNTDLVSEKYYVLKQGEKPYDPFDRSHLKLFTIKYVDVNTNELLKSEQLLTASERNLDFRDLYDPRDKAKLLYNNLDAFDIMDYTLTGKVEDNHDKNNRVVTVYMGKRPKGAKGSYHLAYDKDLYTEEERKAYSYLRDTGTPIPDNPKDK

Escherichia coli = assay: microbe, parasite or virus in culture
Cytochrome P450 2D6 = Cytochrome P450 2D6 (Homo sapiens, UniProt P10635);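 also: CYP2D6 member of a cytochrome P450 panel assay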
Sequence of Cytochrome P450 2D6 (P10635 whole entry): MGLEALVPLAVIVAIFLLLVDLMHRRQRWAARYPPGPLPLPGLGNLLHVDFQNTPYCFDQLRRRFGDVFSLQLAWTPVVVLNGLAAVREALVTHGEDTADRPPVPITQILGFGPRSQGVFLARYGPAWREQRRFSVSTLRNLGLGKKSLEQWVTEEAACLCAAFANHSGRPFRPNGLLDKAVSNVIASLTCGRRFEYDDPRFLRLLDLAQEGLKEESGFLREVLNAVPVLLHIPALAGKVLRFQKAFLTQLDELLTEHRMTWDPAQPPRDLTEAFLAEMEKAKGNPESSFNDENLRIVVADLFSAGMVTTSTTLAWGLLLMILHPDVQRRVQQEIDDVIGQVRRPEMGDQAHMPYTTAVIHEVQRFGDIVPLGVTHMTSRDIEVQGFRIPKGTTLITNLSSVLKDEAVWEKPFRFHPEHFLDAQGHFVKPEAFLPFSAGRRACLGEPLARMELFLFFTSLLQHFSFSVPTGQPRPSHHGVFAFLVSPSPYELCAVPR

Cytochrome P450 2C9 = Cytochrome P450 2C9 (Homo sapiens, UniProt P11712)
Sequence of Cytochrome P450 2C9 (P11712 whole entry): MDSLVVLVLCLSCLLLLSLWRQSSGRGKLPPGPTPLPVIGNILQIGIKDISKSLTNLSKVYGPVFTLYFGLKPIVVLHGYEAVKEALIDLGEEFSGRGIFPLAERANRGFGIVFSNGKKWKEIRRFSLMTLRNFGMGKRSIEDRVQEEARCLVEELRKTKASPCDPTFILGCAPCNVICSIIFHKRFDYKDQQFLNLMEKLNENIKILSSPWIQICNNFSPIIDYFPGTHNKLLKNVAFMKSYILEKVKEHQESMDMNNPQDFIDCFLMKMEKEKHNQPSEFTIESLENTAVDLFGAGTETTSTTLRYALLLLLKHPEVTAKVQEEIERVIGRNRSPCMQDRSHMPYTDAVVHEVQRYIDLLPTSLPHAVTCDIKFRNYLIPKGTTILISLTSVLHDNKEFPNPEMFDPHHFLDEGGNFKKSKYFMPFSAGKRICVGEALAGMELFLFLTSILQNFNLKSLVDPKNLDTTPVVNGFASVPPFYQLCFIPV

Cytochrome P450 3A4 = Cytochrome P450 3A4 (Homo sapiens, UniProt P08684);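 also: CYP3A4 tested as one member of a cytochrome P450 panel screen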
Sequence of Cytochrome P450 3A4 (P08684 whole entry): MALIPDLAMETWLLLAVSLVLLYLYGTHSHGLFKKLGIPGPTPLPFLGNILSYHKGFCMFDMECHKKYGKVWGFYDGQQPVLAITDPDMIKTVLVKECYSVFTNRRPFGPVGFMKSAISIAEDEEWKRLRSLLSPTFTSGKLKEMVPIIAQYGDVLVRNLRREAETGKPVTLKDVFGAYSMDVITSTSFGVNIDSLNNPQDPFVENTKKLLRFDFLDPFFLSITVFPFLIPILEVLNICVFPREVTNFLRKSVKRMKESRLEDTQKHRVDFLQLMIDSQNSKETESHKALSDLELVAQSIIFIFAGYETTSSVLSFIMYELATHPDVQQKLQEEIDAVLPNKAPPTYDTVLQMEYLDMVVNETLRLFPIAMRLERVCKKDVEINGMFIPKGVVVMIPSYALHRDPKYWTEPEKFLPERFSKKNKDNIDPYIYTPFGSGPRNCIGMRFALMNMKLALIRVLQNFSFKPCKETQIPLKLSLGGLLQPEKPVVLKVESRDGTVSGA

[15] = molecular target: Heat shock 70 kDa protein 1A (Homo sapiens, UniProt P0DMV8); assay: Hsp70 inhibitors, SAR follow-up, biochemical, fluorescence polarization (AID 1072)
Sequence of Heat shock 70 kDa protein 1A (P0DMV8 whole entry): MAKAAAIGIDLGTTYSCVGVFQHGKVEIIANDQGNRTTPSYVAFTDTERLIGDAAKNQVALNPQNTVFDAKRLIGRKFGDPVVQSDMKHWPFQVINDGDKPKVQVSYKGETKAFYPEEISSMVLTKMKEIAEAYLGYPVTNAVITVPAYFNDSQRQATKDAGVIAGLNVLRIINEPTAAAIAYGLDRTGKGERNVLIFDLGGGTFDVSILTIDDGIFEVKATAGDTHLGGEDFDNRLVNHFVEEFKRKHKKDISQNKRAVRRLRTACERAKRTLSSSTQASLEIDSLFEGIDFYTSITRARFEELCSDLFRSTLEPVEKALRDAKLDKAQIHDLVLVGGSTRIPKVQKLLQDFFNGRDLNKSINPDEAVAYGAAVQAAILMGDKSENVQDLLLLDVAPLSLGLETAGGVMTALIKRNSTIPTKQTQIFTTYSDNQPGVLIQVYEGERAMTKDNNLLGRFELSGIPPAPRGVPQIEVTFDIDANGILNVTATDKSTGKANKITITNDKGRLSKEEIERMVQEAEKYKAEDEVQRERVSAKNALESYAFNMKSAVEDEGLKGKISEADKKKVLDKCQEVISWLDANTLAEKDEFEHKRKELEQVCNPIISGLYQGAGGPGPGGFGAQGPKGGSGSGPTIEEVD

[16] = molecular target: Glyceraldehyde-3-phosphate dehydrogenase (Homo sapiens, UniProt P04406)
Sequence of Glyceraldehyde-3-phosphate dehydrogenase (P04406 whole entry): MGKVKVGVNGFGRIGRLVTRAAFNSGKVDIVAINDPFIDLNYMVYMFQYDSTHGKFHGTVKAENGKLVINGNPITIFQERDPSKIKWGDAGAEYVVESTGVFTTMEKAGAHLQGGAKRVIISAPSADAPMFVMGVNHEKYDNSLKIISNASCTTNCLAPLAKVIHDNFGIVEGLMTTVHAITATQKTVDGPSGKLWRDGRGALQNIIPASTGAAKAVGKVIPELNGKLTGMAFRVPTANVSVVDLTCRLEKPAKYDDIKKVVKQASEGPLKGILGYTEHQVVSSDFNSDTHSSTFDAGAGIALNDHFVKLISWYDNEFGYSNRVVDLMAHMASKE

[17] = molecular target: T3, Dual specificity protein phosphatase 6 (Rattus norvegicus, UniProt Q64346); assay type: functional
T3 sequence (Q64346 whole entry): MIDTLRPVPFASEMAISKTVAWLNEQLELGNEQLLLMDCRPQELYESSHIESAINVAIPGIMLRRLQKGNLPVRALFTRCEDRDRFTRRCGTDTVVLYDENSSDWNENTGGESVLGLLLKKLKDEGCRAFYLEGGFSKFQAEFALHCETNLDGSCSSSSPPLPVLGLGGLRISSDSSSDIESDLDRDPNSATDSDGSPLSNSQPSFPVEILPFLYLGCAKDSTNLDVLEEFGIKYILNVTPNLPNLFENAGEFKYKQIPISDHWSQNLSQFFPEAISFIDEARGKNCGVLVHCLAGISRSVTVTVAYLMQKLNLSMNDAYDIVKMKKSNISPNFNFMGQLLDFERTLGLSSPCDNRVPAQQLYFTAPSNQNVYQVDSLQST

[18] = molecular target: T3, Dual specificity protein phosphatase 6
[19] = molecular target: T4, Tyrosine-protein phosphatase non-receptor type 7 (Homo sapiens, UniProt P35236); assay type: functional
T4 sequence (P35236 whole entry): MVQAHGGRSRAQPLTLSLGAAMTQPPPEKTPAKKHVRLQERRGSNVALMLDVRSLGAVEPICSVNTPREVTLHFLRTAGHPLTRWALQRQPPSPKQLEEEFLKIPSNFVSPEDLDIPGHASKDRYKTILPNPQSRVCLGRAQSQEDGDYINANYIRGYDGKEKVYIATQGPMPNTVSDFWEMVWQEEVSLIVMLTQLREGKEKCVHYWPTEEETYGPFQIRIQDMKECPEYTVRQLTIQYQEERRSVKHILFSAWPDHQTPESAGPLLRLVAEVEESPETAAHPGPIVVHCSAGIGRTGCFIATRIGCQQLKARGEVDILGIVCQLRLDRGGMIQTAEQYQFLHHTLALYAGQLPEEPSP

[20] = molecular target: Heat shock cognate 71 kDa protein (Homo sapiens, UniProt P11142); assay: In Vitro Hsc70 Dose Response Fluorescence Polarization Assay. [Related pubchem assays: 1072 ]
Sequence of Heat shock cognate 71 kDa protein (P11142 whole entry): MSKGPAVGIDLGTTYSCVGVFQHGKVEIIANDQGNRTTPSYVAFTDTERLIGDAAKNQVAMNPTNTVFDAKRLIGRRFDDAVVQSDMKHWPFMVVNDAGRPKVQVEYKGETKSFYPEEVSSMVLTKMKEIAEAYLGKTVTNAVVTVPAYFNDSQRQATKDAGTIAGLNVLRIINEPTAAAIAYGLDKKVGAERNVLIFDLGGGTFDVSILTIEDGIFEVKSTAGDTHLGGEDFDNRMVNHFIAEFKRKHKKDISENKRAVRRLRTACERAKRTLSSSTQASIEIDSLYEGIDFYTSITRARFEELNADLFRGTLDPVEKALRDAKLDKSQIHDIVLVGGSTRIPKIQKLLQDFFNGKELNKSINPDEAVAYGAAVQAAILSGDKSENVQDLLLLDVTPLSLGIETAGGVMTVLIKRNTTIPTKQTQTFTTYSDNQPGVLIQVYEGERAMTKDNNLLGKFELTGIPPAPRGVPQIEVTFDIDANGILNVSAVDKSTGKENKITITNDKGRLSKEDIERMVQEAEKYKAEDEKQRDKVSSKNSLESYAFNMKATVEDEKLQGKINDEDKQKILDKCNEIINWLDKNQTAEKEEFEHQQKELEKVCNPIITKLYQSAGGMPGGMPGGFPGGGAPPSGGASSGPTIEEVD

Trypsin = Trypsin (Sus scrofa, UniProt P00761); assay: porcine trypsin inhibitors, dose response, selectivity assay for Rce1 protease inhibitor project, biochemical, quenched peptide fluorescence, cherry-pick (AID 488789)
Sequence of Trypsin (P00761 whole entry): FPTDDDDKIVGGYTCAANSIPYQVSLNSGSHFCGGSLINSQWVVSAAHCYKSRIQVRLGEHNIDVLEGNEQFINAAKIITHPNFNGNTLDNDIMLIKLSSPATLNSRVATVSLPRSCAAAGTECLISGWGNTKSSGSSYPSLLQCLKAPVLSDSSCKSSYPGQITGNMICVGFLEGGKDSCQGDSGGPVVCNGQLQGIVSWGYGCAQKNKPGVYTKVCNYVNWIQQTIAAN

[21] = molecular target: T5, Histone-lysine N-methyltransferase NSD2 (Homo sapiens, UniProt O96028); assay type: biochemical
T5 sequence (O96028 whole entry): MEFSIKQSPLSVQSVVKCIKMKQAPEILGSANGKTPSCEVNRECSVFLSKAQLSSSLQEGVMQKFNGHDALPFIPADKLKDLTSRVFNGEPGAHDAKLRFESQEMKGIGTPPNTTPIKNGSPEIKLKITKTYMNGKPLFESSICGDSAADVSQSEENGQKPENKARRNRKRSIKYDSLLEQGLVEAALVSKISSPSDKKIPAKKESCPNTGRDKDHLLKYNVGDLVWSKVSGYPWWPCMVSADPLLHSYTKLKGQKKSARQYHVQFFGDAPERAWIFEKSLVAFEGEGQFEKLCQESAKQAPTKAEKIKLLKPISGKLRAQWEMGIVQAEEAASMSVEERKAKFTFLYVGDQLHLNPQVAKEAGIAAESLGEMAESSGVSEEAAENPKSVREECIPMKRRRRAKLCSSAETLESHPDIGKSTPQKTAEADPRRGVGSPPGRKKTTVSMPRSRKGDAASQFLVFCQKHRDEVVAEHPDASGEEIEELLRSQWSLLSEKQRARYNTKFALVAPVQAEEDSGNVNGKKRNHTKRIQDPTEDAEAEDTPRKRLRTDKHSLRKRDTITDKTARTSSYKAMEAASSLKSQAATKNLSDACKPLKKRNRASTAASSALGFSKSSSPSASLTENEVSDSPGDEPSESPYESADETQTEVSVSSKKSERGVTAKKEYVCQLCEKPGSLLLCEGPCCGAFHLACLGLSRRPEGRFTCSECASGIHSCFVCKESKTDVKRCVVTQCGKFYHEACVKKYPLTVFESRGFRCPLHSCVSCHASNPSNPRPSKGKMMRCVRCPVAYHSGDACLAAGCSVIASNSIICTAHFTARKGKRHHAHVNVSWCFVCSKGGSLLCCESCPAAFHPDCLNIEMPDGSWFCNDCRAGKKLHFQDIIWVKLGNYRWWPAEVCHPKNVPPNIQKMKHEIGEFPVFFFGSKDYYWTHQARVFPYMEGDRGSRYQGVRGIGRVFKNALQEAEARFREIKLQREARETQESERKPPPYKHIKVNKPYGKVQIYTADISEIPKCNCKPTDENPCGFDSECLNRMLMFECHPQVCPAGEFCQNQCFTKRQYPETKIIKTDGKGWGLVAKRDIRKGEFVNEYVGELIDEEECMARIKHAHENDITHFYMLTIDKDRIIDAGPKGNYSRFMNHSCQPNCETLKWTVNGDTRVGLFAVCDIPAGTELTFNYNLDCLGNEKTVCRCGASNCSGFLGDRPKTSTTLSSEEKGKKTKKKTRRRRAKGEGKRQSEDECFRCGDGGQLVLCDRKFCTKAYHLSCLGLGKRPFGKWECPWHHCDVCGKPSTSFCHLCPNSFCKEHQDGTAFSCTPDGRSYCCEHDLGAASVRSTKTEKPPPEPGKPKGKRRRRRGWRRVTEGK

CAAX prenyl protease 1 = CAAX prenyl protease 1 (Saccharomyces cerevisiae S288c, UniProt P47154); assay: Ste24 protease inhibitors, dose response, biochemical, S. cerevisiae, plate reader, cherry-pick (AID 488815)
Sequence of CAAX prenyl protease 1 (P47154 whole entry): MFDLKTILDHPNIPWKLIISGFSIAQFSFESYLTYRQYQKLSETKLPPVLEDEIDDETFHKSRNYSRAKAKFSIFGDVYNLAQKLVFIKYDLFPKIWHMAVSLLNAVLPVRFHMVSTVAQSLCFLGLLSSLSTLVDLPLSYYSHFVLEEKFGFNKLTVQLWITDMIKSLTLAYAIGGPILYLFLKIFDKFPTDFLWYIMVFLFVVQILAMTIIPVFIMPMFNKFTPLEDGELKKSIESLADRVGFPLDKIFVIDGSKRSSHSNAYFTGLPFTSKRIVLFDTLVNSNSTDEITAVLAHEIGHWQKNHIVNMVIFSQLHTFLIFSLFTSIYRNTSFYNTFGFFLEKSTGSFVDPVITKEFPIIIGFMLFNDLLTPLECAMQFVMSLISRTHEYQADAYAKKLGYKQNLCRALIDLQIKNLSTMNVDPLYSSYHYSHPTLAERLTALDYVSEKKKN

With COc1cccc2sc(Nc3nnc(-c4cccs4)o3)nc12 the CC50 [1] was > 20 µM (active), the CC50 [2] was 11.1 µM (active) and the CC50 [3] was 27.8 µM (active). The EC50 [4] was 2.96 µM (active), the CC50 [5] was 11.2 µM (active) and the EC50 [6] was 0.415 µM (active). The IC50 [7] was 15.6 µM (active).

For Cc1ccccc1-c1nc(-c2ccccn2)no1, the AC50 [8] was 12.9 µM (active), the AC50 [9] was 4.18 µM (active) and the AC50 [10] was 17.1 µM (active). For the same molecule, the AC50 [11] was 1.8 µM (active), the AC50 (A-375) was 14.8 µM (active) and the AC50 [12] was 23 µM (active). The AC50 [13] was 1.81 µM (active).

With Cc1ccc(NC(=O)NCc2ccccn2)cc1Cl the EC50 (Streptococcus) was > 150 µM (not active), the EC50 [14] was > 150 µM (not active) and the EC50 (Streptokinase A) was > 150 µM (not active). For the same molecule, the AC50 (Escherichia coli) was 343 µM (active).

In the case of CCSc1nc(O)c2c3c(sc2n1)COC(C)(CC)C3 (stereo not given), the AC50 (Cytochrome P450 2D6) is reported as “inconclusive”, the AC50 (Cytochrome P450 2C9) is reported as 2.82 µM (inconclusive) and the AC50 (Cytochrome P450 3A4) is reported as “inconclusive”.

In the case of CCOc1cc2c(c([N+](=O)[O-])c1)NC(C(=O)O)C1CC=CC21 (stereo not given), the IC50 [15] is reported as > 100 µM (not active), the IC50 [16] is reported as > 100 µM (not active) and the IC50 [17] is reported as > 100 µM (inactive). The IC50 [18] was > 100 µM (inactive), the IC50 [19] was > 100 µM (not active) and the IC50 [20] was > 100 µM (not active).

For CCN(CC)CCCNc1cc(C)nc2cc(-c3cccs3)nn12, the AC50 (Trypsin) was 19.4 µM (active), the AC50 [21] was > 20 µM (inactive) and the AC50 (CAAX prenyl protease 1) was 6.24 µM (active).
